# Assay results taken from article PMC9078123, “Ahmpatinin ^iBu, a new HIV-1 protease inhibitor, from Streptomyces sp. CPCC 202950” (RSC Advances, 2018).
# Square brackets hold non-standard residues; d marks the D form. Peptide text beside a SMILES is read from it. * marks the point of attachment. X1 = COc1ccc(C[C@H](N*)[C@@H](O)CC(=O)O)cc1; Sta = CC(C)C[C@H](N)[C@@H](O)CC(=O)O; Isobutyryl = CC(C)C(=O)*; Propionyl = CCC(=O)*
# Experiments:
# HIV-1 protease = target: T1, HIV-1 protease (Human immunodeficiency virus type 1 group M subtype B, UniProt P04585); test: Inhibition of HIV-1 protease activity; format: biochemical
# T1 construct: HIV-1 PR is a 22 kDa dimeric aspartyl protease
# From the text: Analysis of the inhibition of HIV-1 protease activity
# [1] = Cytotoxic activity assay, Hela; details: human, HeLa cervical cancer cells
# Experimental: (§1) Cervical cancer (Hela), hepatocellular carcinoma (HepG2), and human osteosarcoma (U2OS) cell lines were obtained from the National Infrastructure of Cell Line Resource (Beijing, China).
# (§2) This was measured using the previously described protocol.[34]
# [2] = Cytotoxic activity assay, U2OS; details: human, U2OS osteosarcoma cells
# Experimental: as §1, §2
# [3] = Cytotoxic activity assay, HepG2; details: human, HepG2 hepatocellular carcinoma cells
# Experimental: as §1, §2
compound,measurement,setting,value
"CCC(=O)N[C@H](C(=O)N[C@H](C(=O)N[C@@H](CC(C)C)[C@@H](O)CC(=O)N[C@@H](C)C(=O)N[C@@H](CC(C)C)[C@@H](O)CC(=O)OC)C(C)C)C(C)C [Compound 8, pepstatin Pr methyl ester] (Propionyl-VV[Sta]A[Sta]-OMe)",IC50,HIV-1 protease,139 nM
"CC(C)CCCCC(=O)N[C@H]1CCN(CC(=O)O)C1=O [Compound 3, (−)-(S)-2-[3-(6-methylheptanamido)-2-oxopyrrolidin-1-yl]acetic acid]",IC50,HIV-1 protease,> 10000 nM
same,inhibitory activity against HIV-1 protease (in words),HIV-1 protease; preliminary in vitro assay,inactive
"CCC(=O)N[C@H](C(=O)N[C@H](C(=O)N[C@@H](CC(C)C)[C@@H](O)CC(=O)N[C@@H](C)C(=O)N[C@@H](CC(C)C)[C@@H](O)CC(=O)O)C(C)C)C(C)C [Compound 5, pepstatin Pr] (Propionyl-VV[Sta]A[Sta]-OH)",IC50,HIV-1 protease,22.3 nM
"COC(=O)C[C@H](O)[C@H](CC(C)C)NC(=O)[C@H](C)NC(=O)C[C@H](O)[C@H](CC(C)C)NC(=O)[C@@H](NC(=O)[C@@H](NC(C)=O)C(C)C)C(C)C [Compound 7, pepstatin Ac methyl ester] (Ac-VV[Sta]A[Sta]-OMe)",IC50,HIV-1 protease,203 nM
"COc1ccc(C[C@H](NC(=O)[C@H](C)NC(=O)C[C@H](O)[C@H](CC(C)C)NC(=O)[C@@H](NC(=O)[C@@H](NC(=O)C(C)C)C(C)C)C(C)C)[C@@H](O)CC(=O)O)cc1 [Compound 1, ^iBu-L-Val^1-L-Val^2-(3S,4S)-Sta-L-Ala-(3S,4S)-Ahmppa] (Isobutyryl-VV[Sta]A-X1)",IC50,HIV-1 protease,1.79 nM
"CC(C)C[C@H](NC(=O)[C@@H](NC(=O)[C@@H](NC(=O)C(C)C)C(C)C)C(C)C)[C@@H](O)CC(=O)N[C@@H](C)C(=O)O [Compound 2, ^iBu-L-Val^1-L-Val^2-(3S,4S)-Sta-L-Ala] (Isobutyryl-VV[Sta]A-OH)",IC50,HIV-1 protease,3190 nM
"CC(C)C[C@H](NC(=O)[C@H](C)NC(=O)C[C@H](O)[C@H](CC(C)C)NC(=O)[C@@H](NC(=O)[C@@H](NC(=O)C(C)C)C(C)C)C(C)C)[C@@H](O)CC(=O)O [Compound 6, pepsinostreptin] (Isobutyryl-VV[Sta]A[Sta]-OH)",IC50,HIV-1 protease,9.9 nM
COc1cccc2c1C(=O)c1c(O)c3c(c(O)c1C2=O)C[C@@](O)(C(=O)CO)C[C@@H]3O[C@H]1C[C@H](N)[C@H](O)[C@H](C)O1 [doxorubicin],IC50,[1],1420 nM
same,IC50,[2],2780 nM
same,IC50,[3],1560 nM
"COC(=O)C[C@H](O)[C@H](CC(C)C)NC(=O)[C@H](C)NC(=O)C[C@H](O)[C@H](CC(C)C)NC(=O)[C@@H](NC(=O)[C@@H](NC(=O)C(C)C)C(C)C)C(C)C [Compound 9, pepsinostreptin methyl ester] (Isobutyryl-VV[Sta]A[Sta]-OMe)",IC50,HIV-1 protease,782 nM
